Here are results for twelve molecules from PubChem BioAssay (NCI).

Each structure is given as a SMILES string. Values joined by “and” are separate entries in the source; they are usually repeats but may differ in a detail not shown here. Equal entries are not always repeated.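 A five-concentration, 48-hour dose response in 96-well plates underlies each endpoint, interpolated linearly between surrounding concentrations. Here, GI50 denotes the concentration required for 50% inhibition of growth. At the TGI there is no net growth.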

Among the test systems are SF-295 CNS; SR leukemia; LOX IMVI melanoma; CAKI-1 renal; OVCAR-8 ovarian; HL-60(TB) leukemia; COLO 205 colon; HOP-92 NSCLC; SK-OV-3 ovarian; SNB-75 CNS.
Holding throughout (test): growth of human tumour cells (NCI), 48 h

Turning to `O=c1cc(C(F)(F)F)c2cc3c(cc2o1)NCCC3`, the TGI with SF-295 CNS, with SR leukemia, in the test with LOX IMVI melanoma, in the test on CAKI-1 renal, in the test on OVCAR-8 ovarian and in the test on HL-60(TB) leukemia was more than 100 µM in each case. Also, the TGI in the test on COLO 205 colon and in the test on HOP-92 NSCLC was more than 100 µM throughout.

Consider `Cc1cn(C2CC(F)C(CO)O2)c(=O)[nH]c1=O` (stereo unspecified), for which the GI50 in the test on SR leukemia, in the test with LOX IMVI melanoma, in the test with CAKI-1 renal, with OVCAR-8 ovarian, in the test on HL-60(TB) leukemia and in the test with SK-OV-3 ovarian was more than 100 µM in each case. In addition, the GI50 in the test with COLO 205 colon and with HOP-92 NSCLC was more than 100 µM in each case. Also, the TGI in the test with SR leukemia, with LOX IMVI melanoma, with CAKI-1 renal, with OVCAR-8 ovarian, with HL-60(TB) leukemia and with SK-OV-3 ovarian was more than 100 µM in each case. The TGI in the test on COLO 205 colon and with HOP-92 NSCLC was more than 100 µM each time.

Take `O=C1NC(=S)NC(=O)C1=Cc1cc2c(cc1[N+](=O)[O-])OCO2`: the TGI in the test with SR leukemia, in the test with CAKI-1 renal, in the test with OVCAR-8 ovarian, in the test on HL-60(TB) leukemia, in the test on SK-OV-3 ovarian and in the test on COLO 205 colon was more than 100 µM throughout. This molecule returned a TGI in the test with SNB-75 CNS of more than 100 µM.

Take `CC(=O)O[C@H]1C(=O)[C@@]2(C)C(C(OC(=O)c3ccccc3)[C@]3(O)CC(OC(=O)[C@H](OC(=O)CCC(=O)O)C(NC(=O)c4ccccc4)c4ccccc4)C(C)=C1C3(C)C)C1(OC(C)=O)COC1C[C@@H]2OC(=O)CCC(=O)O` (stereo partly specified): the GI50 is less than 0.0202 µM with SR leukemia; > 89.2 µM and 36.3 µM in the test on CAKI-1 renal; 0.865 µM in the test with COLO 205 colon. In addition, the TGI in the test with SR leukemia was more than 23.3 µM; in the test with LOX IMVI melanoma it was more than 100 µM; in the test with CAKI-1 renal it was more than 100 µM; in the test on OVCAR-8 ovarian, more than 100 µM; in the test with HL-60(TB) leukemia, 0.868 µM; with SK-OV-3 ovarian, more than 100 µM. Also, the TGI was 18.6 µM with COLO 205 colon, more than 100 µM in the test on HOP-92 NSCLC and more than 26.8 µM in the test with SNB-75 CNS.

For `COc1c(O)c2c(c3cc(C(=O)N4CCc5c4c(O)c(OC)c4[nH]c(C(=O)N6CC7CC78C6=CC(=O)c6[nH]cc(C)c68)cc54)[nH]c13)CCN2C(N)=O` (stereo unspecified), the GI50 with SF-295 CNS was 1.74 ng/mL; with HL-60(TB) leukemia it was 7 ng/mL; with HOP-92 NSCLC, 8.1 ng/mL. The TGI in the test on SF-295 CNS is 4.8 nM and 0.00618 µg/mL; with SR leukemia, > 100 µM and 0.0804 µg/mL; in the test on LOX IMVI melanoma, 2.61 nM and 287 nM and 0.00412 µg/mL; in the test on CAKI-1 renal, 5.31 nM and > 100 µM and 0.00582 µg/mL; in the test with OVCAR-8 ovarian, 0.00265 µM; in the test on HL-60(TB) leukemia, 0.0439 µg/mL. Besides, the TGI is 3.83 nM and 5.18 µM and 0.00504 µg/mL in the test on COLO 205 colon; 28.8 nM and 0.0401 µg/mL with HOP-92 NSCLC.

Consider `Cc1ccc(NC(=O)CC2C(=O)Nc3ccccc3S2=O)cc1C` (stereo unspecified), for which the TGI with SF-295 CNS, in the test with SR leukemia, with LOX IMVI melanoma, in the test with CAKI-1 renal, in the test with OVCAR-8 ovarian and with HL-60(TB) leukemia was more than 100 µM in each case. For the same molecule, the values for the TGI in the test on HOP-92 NSCLC and in the test on SNB-75 CNS were 74.2 µM and more than 100 µM, respectively.

Take `C[C@]12CCC3[C@@H](C[C@@H]4SC(Nc5ccccc5)=N[C@@]45CC(=O)CC[C@]35C)[C@@H]1CCC2=O` (stereo partly specified): the GI50 is 8.98 µM in the test on SF-295 CNS; 2.58 µM in the test with SR leukemia; 3.22 µM in the test with LOX IMVI melanoma; 13 µM in the test with CAKI-1 renal; 7.61 µM in the test on OVCAR-8 ovarian; 34 µM in the test on SK-OV-3 ovarian. Further, the GI50 was 12.3 µM in the test with COLO 205 colon, 18.7 µM in the test with HOP-92 NSCLC and 5.4 µM in the test on SNB-75 CNS. For the same molecule, the TGI in the test with SF-295 CNS was more than 100 µM; in the test with SR leukemia, more than 100 µM; in the test on LOX IMVI melanoma, 10.8 µM; in the test on CAKI-1 renal, 30.2 µM; in the test with OVCAR-8 ovarian it was more than 100 µM; with SK-OV-3 ovarian it was more than 100 µM. Besides, the TGI in the test with COLO 205 colon was determined as 37.4 µM; with HOP-92 NSCLC it was 67.9 µM; in the test with SNB-75 CNS, 72.5 µM.

With `O=c1n(C2CCCCC2)c(=C(Cl)Cl)c(=C(Cl)Cl)n1C1CCCCC1`, the TGI with SF-295 CNS, in the test with SR leukemia, with LOX IMVI melanoma, in the test with OVCAR-8 ovarian, with HL-60(TB) leukemia and in the test with SK-OV-3 ovarian was more than 100 µM in each case. In addition, the TGI with COLO 205 colon and in the test on SNB-75 CNS was more than 100 µM throughout.

In the case of `Cc1c(C#N)cccc1-c1cc(-c2cn(Cc3cccc(C(C)(C)O)n3)nn2)nc(N)n1`, the GI50 is 25.2 µM in the test on SF-295 CNS; 13.3 µM with SR leukemia; 28.2 µM with LOX IMVI melanoma; 10.4 µM in the test with CAKI-1 renal; 24.2 µM in the test with OVCAR-8 ovarian; 12.2 µM in the test with HL-60(TB) leukemia. Besides, the GI50 with SK-OV-3 ovarian is 48.8 µM; in the test on COLO 205 colon, 25.9 µM; in the test on SNB-75 CNS it was 2.96 µM. Further, the TGI in the test on SF-295 CNS was more than 100 µM; in the test on SR leukemia, more than 100 µM; with LOX IMVI melanoma, more than 100 µM; in the test on CAKI-1 renal, more than 100 µM; with OVCAR-8 ovarian it was more than 100 µM; with HL-60(TB) leukemia it was 46 µM. For the same molecule, the figures for the TGI in the test on SK-OV-3 ovarian, in the test with COLO 205 colon and with SNB-75 CNS were more than 100 µM, more than 100 µM and 39 µM, respectively.

`CCOC(=O)CC(=O)Sc1ccccc1`: the TGI in the test with SF-295 CNS turned out to be 86.5 µM; with SR leukemia it was 58.1 µM; in the test with LOX IMVI melanoma it was 26.8 µM; in the test with OVCAR-8 ovarian, 34.6 µM; in the test on HL-60(TB) leukemia it was 48.6 µM; in the test on SK-OV-3 ovarian, 49.3 µM. Also, the TGI in the test with COLO 205 colon is 52.9 µM; with HOP-92 NSCLC, 89.5 µM.

As for `Cc1ccccc1-c1c(N)nc(NC#N)nc1C(=O)Nc1ccccc1`, the TGI in the test with SF-295 CNS, with SR leukemia, in the test with LOX IMVI melanoma, with CAKI-1 renal, in the test on SK-OV-3 ovarian and with COLO 205 colon was more than 100 µM throughout. For the same molecule, the TGI in the test on HOP-92 NSCLC and in the test with SNB-75 CNS was more than 100 µM each time.

On to `CCCCCCCCCCCCCCCCCC(=O)OCC(CN(C)CCN(C)C)OC(=O)CCCCCCCCCCCCCCCCC` (stereo unspecified), for which the TGI with SF-295 CNS was more than 100 µM; with SR leukemia, 64.2 µM; in the test with LOX IMVI melanoma, more than 100 µM; in the test with CAKI-1 renal, more than 100 µM; in the test on OVCAR-8 ovarian, more than 100 µM; in the test on SK-OV-3 ovarian it was more than 100 µM. Besides, the TGI with COLO 205 colon, in the test with HOP-92 NSCLC and in the test on SNB-75 CNS was more than 100 µM each time.
